Consider eight molecules from PubChem BioAssay (NCI).

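Compound exposure: 48 hours, 5 concentrations, 96-well plates. Here, GI50 denotes the concentration required for 50% inhibition of growth. TGI marks complete inhibition of growth.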

Test systems include COLO 205 colon; SK-OV-3 ovarian; CAKI-1 renal; HS 578T breast; SW-620 colon; HCT-116 colon; RPMI-8226 leukemia; CCRF-CEM leukemia; SNB-75 CNS; MALME-3M melanoma.
What all share (assay): growth of human tumour cells (NCI), 48 h

For `NS(=O)(=O)c1cccc(N=Cc2c(O)[nH]c3ccccc23)c1`, the GI50 in the assay with COLO 205 colon was above 25 µM; with SK-OV-3 ovarian it was above 18.5 µM; in the assay on CAKI-1 renal, 13.9 µM; with HS 578T breast, above 25 µM; in the assay on SW-620 colon it was above 25 µM; in the assay on HCT-116 colon, above 25 µM. In addition, the GI50 in the assay on RPMI-8226 leukemia, with CCRF-CEM leukemia, in the assay on SNB-75 CNS and with MALME-3M melanoma was above 25 µM throughout. The TGI in the assay with COLO 205 colon, in the assay on SK-OV-3 ovarian, in the assay on CAKI-1 renal, in the assay with HS 578T breast, in the assay on SW-620 colon and with HCT-116 colon was above 25 µM in each case. Besides, the TGI with RPMI-8226 leukemia, in the assay on CCRF-CEM leukemia, in the assay on SNB-75 CNS and in the assay on MALME-3M melanoma was above 25 µM each time.
For the molecule `Cc1c(C)[n+](=O)c(C)c(C)n1[O-]`, the GI50 in the assay with COLO 205 colon, with SK-OV-3 ovarian, with CAKI-1 renal, in the assay on HS 578T breast, in the assay on SW-620 colon and in the assay on HCT-116 colon was above 100 µM each time. The GI50 in the assay with RPMI-8226 leukemia was above 100 µM; in the assay on CCRF-CEM leukemia, above 100 µM; in the assay with SNB-75 CNS it was 79.8 µM; in the assay with MALME-3M melanoma it was above 100 µM. Moreover, the TGI with COLO 205 colon, in the assay with SK-OV-3 ovarian, in the assay with CAKI-1 renal, with HS 578T breast, with SW-620 colon and with HCT-116 colon was above 100 µM throughout. In addition, the TGI with RPMI-8226 leukemia, with CCRF-CEM leukemia, with SNB-75 CNS and with MALME-3M melanoma was above 100 µM throughout.
`NC1=NC(c2ccc(Cl)cc2)C2=C(N1)/C(=C/c1ccc(Cl)cc1)CCC2` (centres undefined): the GI50 with COLO 205 colon is 6.17 µM; with SK-OV-3 ovarian it was 23.5 µM; in the assay on CAKI-1 renal, 13.6 µM; with HS 578T breast it was 7.97 µM; in the assay with SW-620 colon, 3.24 µM; in the assay with HCT-116 colon it was 1.67 µM. Moreover, the GI50 is 2.36 µM in the assay on RPMI-8226 leukemia, 5.95 µM in the assay on CCRF-CEM leukemia, 16.4 µM with SNB-75 CNS and 19.4 µM in the assay on MALME-3M melanoma. Besides, the TGI in the assay with COLO 205 colon is 19.9 µM; in the assay on SK-OV-3 ovarian, above 100 µM; with CAKI-1 renal, above 96.7 µM; in the assay on HS 578T breast, above 29.9 µM; with SW-620 colon, 12.4 µM; with HCT-116 colon, 3.22 µM. Also, the TGI in the assay with RPMI-8226 leukemia is 6.15 µM; with CCRF-CEM leukemia, above 81.5 µM; with SNB-75 CNS, 59.3 µM; with MALME-3M melanoma it was 50.8 µM.
On to `COc1cccc2c1C(=O)c1c(O)c3c(c(O)c1C2=O)C[C@@](O)(C(=O)CO)C[C@@H]3OC1C[C@H](N)[C@H](O)[C@H](C)O1` (some centres undefined), for which the GI50 with COLO 205 colon was 0.0904 µM; in the assay on SK-OV-3 ovarian it was 0.107 µM; in the assay on HS 578T breast it was 0.132 µM; in the assay on SW-620 colon, 0.0312 µM; with HCT-116 colon, 0.036 µM; with RPMI-8226 leukemia, 0.0909 µM. In addition, the GI50 is 0.0186 µM with CCRF-CEM leukemia, 0.034 µM in the assay on SNB-75 CNS and 0.0462 µM in the assay with MALME-3M melanoma. In addition, the TGI with COLO 205 colon stood at 0.446 µM; in the assay on SK-OV-3 ovarian, 10.9 µM; in the assay with CAKI-1 renal, 4.18 µM; in the assay on SW-620 colon, 2.97 µM; in the assay on HCT-116 colon, 0.212 µM; with RPMI-8226 leukemia it was 1.28 µM. Besides, the values for the TGI in the assay on CCRF-CEM leukemia, with SNB-75 CNS and in the assay on MALME-3M melanoma were 0.428 µM, 0.147 µM and 0.145 µM, respectively.
For the molecule `COc1cc(/C=C2\CN(C)C/C(=C\c3cc(CN4CCCCC4)c(O)c(OC)c3)C2=O)cc(CN2CCCCC2)c1O`, the GI50 is 1.96 µM in the assay with COLO 205 colon; 7.71 µM with SK-OV-3 ovarian; 4.62 µM in the assay with CAKI-1 renal; 3.27 µM with HS 578T breast; 3.27 µM with SW-620 colon; 2.5 µM in the assay with HCT-116 colon. Also, the GI50 in the assay with RPMI-8226 leukemia is 3.04 µM; in the assay on CCRF-CEM leukemia, 2.77 µM; in the assay on SNB-75 CNS, 1.99 µM; in the assay with MALME-3M melanoma, 5.62 µM. In addition, the TGI came out at 3.74 µM with COLO 205 colon; 37.2 µM with SK-OV-3 ovarian; 17.5 µM in the assay on CAKI-1 renal; 80.6 µM in the assay on HS 578T breast; 12.6 µM in the assay with SW-620 colon; 8 µM in the assay with HCT-116 colon. For the same molecule, the TGI was found to be 9.32 µM with RPMI-8226 leukemia, 7.52 µM in the assay with CCRF-CEM leukemia, 9.13 µM in the assay on SNB-75 CNS and 19.6 µM in the assay with MALME-3M melanoma.
For `CCCCCCCCCCCCSC(=N)N`, the GI50 was 1.98 µM with COLO 205 colon; 17.4 µM in the assay on SK-OV-3 ovarian; 3.79 µM in the assay on CAKI-1 renal; 17.3 µM in the assay on HS 578T breast; 2.73 µM in the assay on SW-620 colon; 3.86 µM in the assay on HCT-116 colon. Also, the GI50 in the assay with RPMI-8226 leukemia is 2.94 µM; in the assay with CCRF-CEM leukemia, 8.4 µM; in the assay with SNB-75 CNS, 16.2 µM; with MALME-3M melanoma it was 15 µM. Also, the TGI with COLO 205 colon was found to be 3.72 µM; with SK-OV-3 ovarian, 33.5 µM; with CAKI-1 renal it was 14.4 µM; with HS 578T breast, 38.8 µM; in the assay on SW-620 colon it was 8.14 µM; with HCT-116 colon, 14.9 µM. Besides, the TGI with RPMI-8226 leukemia was 10.2 µM; in the assay with CCRF-CEM leukemia, 26.1 µM; in the assay on SNB-75 CNS, 35 µM; in the assay with MALME-3M melanoma, 29.5 µM.
`O=C(N/N=C/c1ccc([N+](=O)[O-])cc1)c1ccc2nc(-c3ccc(Cl)cc3)[nH]c2c1`: the GI50 was 11.4 µM with SK-OV-3 ovarian; 3.49 µM with CAKI-1 renal; 3.58 µM with HS 578T breast; 3.44 µM in the assay on SW-620 colon; 2.25 µM in the assay on HCT-116 colon; 0.461 µM in the assay on RPMI-8226 leukemia. Further, the GI50 is 0.591 µM with CCRF-CEM leukemia, 2.78 µM with SNB-75 CNS and 1.48 µM with MALME-3M melanoma. Moreover, the TGI in the assay with SK-OV-3 ovarian was 39.6 µM; with CAKI-1 renal it was 16.1 µM; in the assay on HS 578T breast, 24.4 µM; with SW-620 colon, 10.8 µM; in the assay with HCT-116 colon it was 6.9 µM; with RPMI-8226 leukemia, 2.41 µM. Besides, the TGI in the assay with CCRF-CEM leukemia was 17.7 µM; in the assay with SNB-75 CNS, 18 µM; in the assay on MALME-3M melanoma it was 5 µM.
As for `COc1ccc(-c2ccc(-c3ccc(-c4ccc(C(=N)N)cc4)s3)s2)cc1OC`, the GI50 is 1.37 µM in the assay on COLO 205 colon; 14.5 µM in the assay on SK-OV-3 ovarian; 15.1 µM in the assay on CAKI-1 renal; 21.2 µM with HS 578T breast; 0.882 µM in the assay with SW-620 colon; 2.86 µM in the assay on RPMI-8226 leukemia. Also, the GI50 with CCRF-CEM leukemia was 2.24 µM; in the assay with SNB-75 CNS it was 14.4 µM; with MALME-3M melanoma, 13 µM. The TGI in the assay on COLO 205 colon is 4.57 µM; with SK-OV-3 ovarian it was 37.3 µM; in the assay with CAKI-1 renal, 30.4 µM; in the assay on HS 578T breast it was 48.1 µM; in the assay on SW-620 colon, 4.2 µM; with RPMI-8226 leukemia, 13.4 µM. The figures for the TGI in the assay with CCRF-CEM leukemia, in the assay with SNB-75 CNS and in the assay on MALME-3M melanoma were 6.4 µM, 31 µM and 49.6 µM, respectively.
